Data on 35 molecules can be found in US9884048B2, “ERK inhibitors” (Merck Sharp & Dohme Corp., priority 2014, dated 2018).

The structures appear in SMILES notation.

Chain of phosphorylated active hERK2 enzyme (P28482 whole entry): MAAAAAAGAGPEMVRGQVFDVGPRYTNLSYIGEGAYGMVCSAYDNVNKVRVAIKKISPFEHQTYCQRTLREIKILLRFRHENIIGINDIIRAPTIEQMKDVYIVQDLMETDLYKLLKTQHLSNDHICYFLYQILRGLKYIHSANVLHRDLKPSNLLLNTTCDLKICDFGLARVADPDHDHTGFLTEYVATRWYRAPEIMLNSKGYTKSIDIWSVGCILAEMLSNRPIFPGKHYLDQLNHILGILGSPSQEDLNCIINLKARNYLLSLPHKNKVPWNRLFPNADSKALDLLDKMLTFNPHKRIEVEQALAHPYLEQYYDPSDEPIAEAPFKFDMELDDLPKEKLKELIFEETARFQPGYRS

The first test has as its target phosphorylated active hERK2 enzyme (Homo sapiens (Human), UniProt P28482).
Details: not given
Usually IC50 stands for the concentration at which inhibition is half-maximal. As for `Cc1cc(-n2ncc3cc(NC(=O)N[C@H]4CCC[C@@H]4c4ccccc4)ncc32)ccn1` (racemic) [Example 168, Racemic trans 1-[1-(2-methylpyridin-4-yl)-1H-pyrazolo[3,4-c]pyridin-5-yl]-3-[(1S,2R) and (1R,2S)-2-phenylcyclopentyl]urea], the IC50 was found to be 7.34 nM.

Staying with this test, now noted: read-out: ERK2 IC50; IMAP-FP assay; 0.5 nM hERK2, 30 μM ATP; 10 point titration, 3 μM starting concentration.
As to `C[C@@H](NC(=O)Nc1cc2cnn(CC(F)(F)F)c2c(CO)n1)c1ccccc1` [Example 314, 1-[7-(hydroxymethyl)-1-(2,2,2-trifluoroethyl)-1H-pyrazolo[3,4-c]pyridin-5-yl]-3-[(1R)-1-phenylethyl]urea], the IC50 turned out to be 175 nM.

Regarding `Cn1ncc2ccc(-n3ncc4cc(NC(=O)N[C@@H](c5ccccc5)C(C)(C)O)ncc43)cc21` [Example 206, 1-[(1S)-2-hydroxy-2-methyl-1-phenylpropyl]-3-[1-(1-methyl-1H-indazol-6-yl)-1H-pyrazolo[3,4-c]pyridin-5-yl]urea], the IC50 turned out to be 0.99 nM. Same read-out and setting: the figure for `Cc1cc(-n2ncc3cc(NC(=O)N[C@H]4CN(C)C[C@@H]4CCc4ccccc4)ncc32)ccn1` [Example 185, 1-[(3R,4S)-1-methyl-4-(2-phenylethyl)pyrrolidin-3-yl]-3-[1-(2-methylpyridin-4-yl)-1H-pyrazolo[3,4-c]pyridin-5-yl]urea] is 0.182 nM; for `Cc1cc(-n2ncc3cc(NC(=O)NCC4(N(C)C)CCCCC4)ncc32)ccn1` [Example 100, 1-{[1-(dimethylamino)cyclohexyl]methyl}-3-[1-(2-methylpyridin-4-yl)-1H-pyrazolo[3,4-c]pyridin-5-yl)urea] it is 1210 nM. Regarding `Cc1cc(-n2ncc3cc(NC(=O)NC(c4ccccc4)C4CCCO4)ncc32)ccn1` (centres unmarked) [Example 159, 1-[1-(2-methylpyridin-4-yl)-1H-pyrazolo[3,4-c]pyridin-5-yl]-3-[phenyl(tetrahydrofuran-2-yl)methyl]urea], the IC50 is 2.49 nM. The same measure, in the same setting: the figure for `CCn1ncc2cc(NC(=O)N[C@H](C)c3ccccc3)nc(OC)c21` [Example 256, 1-(1-ethyl-7-methoxy-1H-pyrazolo[3,4-c]pyridin-5-yl)-3-[(1R)-1-phenylethyl]urea] is 100 nM.

On to `C[C@@H](O)[C@@H](NC(=O)Nc1cc2cn[nH]c2cn1)c1ccccc1` [Example 227, 1-((1S,2R)-2-Hydroxy-1-phenylpropyl)-3-(1H-pyrazolo[3,4-c]pyridin-5-yl)urea], for which the IC50 turned out to be 134 nM.

In the case of `COCCOCc1nc(NC(=O)N[C@H](C)c2ccccc2)cc2cnn(-c3ccnc(C)c3)c12` [Example 248, 1-{7-[(2-methoxyethoxy)methyl]-1-(2-methylpyridin-4-yl)-1H-pyrazolo[3,4-c]pyridin-5-yl}-3-[(1R)-1-phenylethyl]urea], the IC50 is 11.4 nM.

`C[C@@H](NC(=O)Nc1cc2cnn(C(C)(C)C)c2c(CO)n1)c1ccccc1` [Example 255, 1-[1-tert-butyl-7-(hydroxymethyl)-1H-pyrazolo[3,4-c]pyridin-5-yl]-3-[(1R)-1-phenylethyl]urea]: the IC50 was 1260 nM. As to `CCO[C@H]1CNC[C@@H]1NC(=O)Nc1cc2cnn(-c3ccnc(C)c3)c2cn1` [Example 272, 1-[(3S,4S)-4-ethoxypyrrolidin-3-yl]-3-[1-(2-methylpyridin-4-yl)-1H-pyrazolo[3,4-c]pyridin-5-yl]urea], the IC50 worked out at 39.9 nM.

On to `Cc1cc(-n2ncc3cc(NC(=O)NC4CC(C)(C)Oc5ccccc54)ncc32)ccn1` (centres unmarked) [Example 46, 1-(2,2-dimethyl-3,4-dihydro-2H-chromen-4-yl)-3-[1-(2-methylpyridin-4-yl)-1H-pyrazolo[3,4-c]pyridin-5-yl]urea], for which the IC50 was 174 nM. With `Cc1cc(-n2ncc3cc(NC(=O)NCCN(C)C)ncc32)ccn1` [Example 15, 1-(2-(dimethylamino)ethyl)-3-(1-(2-methylpyridin-4-yl)-1H-pyrazolo[3,4-c]pyridin-5-yl)urea], the IC50 is 1430 nM. Still for that read-out and setting: with `COC[C@@H](NC(=O)Nc1cc2cnn(C)c2cn1)c1ccccc1` [Example 237, 1-[(1S)-2-methoxy-1-phenylethyl]-3-(1-methyl-1H-pyrazolo[3,4-c]pyridin-5-yl)urea] the figure was 882 nM.

On to `Cc1cc(-n2ncc3cc(NC(=O)NC4COc5ccccc54)ncc32)ccn1` (centres unmarked) [Example 177, 1-(2,3-dihydro-1-benzofuran-3-yl)-3-[1-(2-methylpyridin-4-yl)-1H-pyrazolo[3,4-c]pyridin-5-yl]urea], for which the IC50 worked out at 215 nM. As for `Cc1cc(-n2ncc3cc(NC(=O)N[C@H]4CCC[C@@H]4Oc4cccnc4)ncc32)ccn1` [Example 179, 1-[1-(2-methylpyridin-4-yl)-1H-pyrazolo[3,4-c]pyridin-5-yl]-3-[(1S,2S)-2-(pyridin-3-yloxy)cyclopentyl]urea], the IC50 is 511 nM. Take `C[C@@H](NC(=O)Nc1cc2cnn(-c3cnn(C)c3)c2cn1)c1cccc(Cl)c1` [Example 217, 1-[(1R)-1-(3-chlorophenyl)ethyl]-3-[1-(1-methyl-1H-pyrazol-4-yl)-1H-pyrazolo[3,4-c]pyridin-5-yl]urea]: the IC50 was found to be 5.45 nM. Consider `CC(C)Cn1ncc2cc(NC(=O)N[C@H](C)c3ccccc3)nc(CO)c21` [Example 306, 1-[7-(hydroxymethyl)-1-(2-methylpropyl)-1H-pyrazolo[3,4-c]pyridin-5-yl]-3-[(1R)-1-phenylethyl]urea], for which the IC50 was 178 nM. Take `CC(C)(O)[C@@H](NC(=O)Nc1cc2cn[nH]c2cn1)c1ccccc1` [Example 230, (S)-1-(2-hydroxy-2-methyl-1-phenylpropyl)-3-(1H-pyrazolo[3,4-c]pyridin-5-yl)urea]: the IC50 is 70 nM. `Cc1cc(-n2ncc3cc(NC(=O)N[C@H]4CN(C)C[C@@H]4c4ccccc4C)ncc32)ccn1` [Example 180, 1-[(3R,4S)-1-methyl-4-(2-methylphenyl)pyrrolidin-3-yl]-3-[1-(2-methylpyridin-4-yl)-1H-pyrazolo[3,4-c]pyridin-5-yl]urea]: the IC50 came out at 0.28 nM. For the molecule `C[C@@H](NC(=O)Nc1cc2cnn(C)c2c(CO)n1)c1ccccc1` [Example 298, (R)-1-(7-(Hydroxymethyl)-1-methyl-1H-pyrazolo[3,4-c]pyridin-5-yl)-3-(1-phenylethyl)urea], the IC50 is 60.4 nM.

With `Cc1cc(-n2ncc3cc(NC(=O)NCc4ccc(C(C)(C)O)cc4)ncc32)ccn1` [Example 86, 1-[4-(1-hydroxy-1-methylethyl)benzyl]-3-[1-(2-methylpyridin-4-yl)-1H-pyrazolo[3,4-c]pyridin-5-yl)urea], the IC50 amounted to 731 nM. The same measure, in the same setting: the figure for `O=C(NCc1ccccc1)Nc1cc2cnn(-c3ccc(F)cc3)c2cn1` [Example 37, 1-benzyl-3-[1-(4-fluorophenyl)-1H-pyrazolo[3,4-c]pyridin-5-yl)urea] is 19.8 nM. In the case of `Cc1cc(-n2ncc3cc(NC(=O)NC4CCOc5ccccc54)ncc32)ccn1` (centres unmarked) [Example 172, 1-(3,4-dihydro-2H-chromen-4-yl)-3-[1-(2-methylpyridin-4-yl)-1H-pyrazolo[3,4-c]pyridin-5-yl)urea], the IC50 stood at 40.7 nM. As to `Cc1cc(-n2ncc3cc(NC(=O)N[C@H](C)c4ccccn4)ncc32)ccn1` [Example 204, 1-[1-(2-methylpyridin-4-yl)-1H-pyrazolo[3,4-c]pyridin-5-yl]-3-[(1R)-1-pyridin-2-ylethyl]urea], the IC50 was 7.84 nM. Same read-out and setting: the figure for `Cc1cc(-n2ncc3cc(NC(=O)NCc4csc5ccccc45)ncc32)ccn1` [Example 125, 1-(1-benzothiophen-3-ylmethyl)-3-[1-(2-methylpyridin-4-yl)-1H-pyrazolo[3,4-c]pyridin-5-yl)urea] is 84.5 nM; for `CCC(O)(CC)[C@@H](NC(=O)Nc1cc2cnn(-c3ccnc(C)c3)c2cn1)c1ccccc1` [Example 293, 1-[(1S)-2-ethyl-2-hydroxy-1-phenylbutyl]-3-[1-(2-methylpyridin-4-yl)-1H-pyrazolo[3,4-c]pyridin-5-yl]urea] it is 2.66 nM; for `O=C(NCc1ccc(Cl)c(Cl)c1)Nc1cc2cnn(-c3ccc(F)cc3)c2cn1` [Example 13, 1-(3,4-dichlorobenzyl)-3-[1-(4-fluorophenyl)-1H-pyrazolo[3,4-c]pyridin-5-yl]urea] it is 19.7 nM. For `C[C@@H](NC(=O)Nc1cc2cnn(C)c2cn1)c1ccc(F)cc1` [Example 232, 1-[(1R)-1-(4-fluorophenyl)ethyl]-3-(1-methyl-1H-pyrazolo[3,4-c]pyridin-5-yl)urea], the IC50 is 579 nM. Turning to `Cc1cc(-n2ncc3cc(NC(=O)NCc4cccc(-c5ncco5)c4)ncc32)ccn1` [Example 94, 1-[1-(2-methylpyridin-4-yl)-1H-pyrazolo[3,4-c]pyridin-5-yl]-3-[3-(1,3-oxazol-2-yl)benzyl]urea], the IC50 is 13.3 nM. As to `C[C@@H](NC(=O)Nc1cc2cnn(C3CCCC3)c2c(CO)n1)c1ccccc1` [Example 307, 1-[1-cyclopentyl-7-(hydroxymethyl)-1H-pyrazolo[3,4-c]pyridin-5-yl]-3-[(1R)-1-phenylethyl]urea], the IC50 was 125 nM. Turning to `O=C(NCCc1ccccc1F)Nc1cc2cnn(-c3ccncc3)c2cn1` [Example 40, 1-[2-(2-fluorophenyl)ethyl]-3-(1-pyridin-4-yl-1H-pyrazolo[3,4-c]pyridin-5-yl)urea], the IC50 came out at 9.2 nM. On to `Cc1cc(-n2ncc3cc(NC(=O)NC4CNCC4c4ccccc4)ncc32)ccn1` (centres unmarked) [Example 63, 1-[1-(2-methylpyridin-4-yl)-1H-pyrazolo[3,4-c]pyridin-5-yl]-3-(4-phenylpyrrolidin-3-yl)urea], for which the IC50 was 54.4 nM. The same measure, in the same setting: the figure for `Cc1cc(-n2ncc3cc(NC(=O)N[C@H]4CCCC[C@@H]4N)ncc32)ccn1` [Example 138, 1-[(1S,2S)-2-aminocyclohexyl]-3-[1-(2-methylpyridin-4-yl)-1H-pyrazolo[3,4-c]pyridin-5-yl]urea] is 396 nM. `Cc1cc(-n2ncc3cc(NC(=O)N[C@@H]4CN(C)C[C@H]4c4ccc(C)s4)ncc32)ccn1` [Example 188, 1-[(3S,4R)-1-methyl-4-(5-methylthiophen-2-yl)pyrrolidin-3-yl]-3-[1-(2-methylpyridin-4-yl)-1H-pyrazolo[3,4-c]pyridin-5-yl]urea]: the IC50 amounted to 70.1 nM.
